A short description of data set [1]: Intestinal S9 Assay (dog GI S9). The class given is in vitro ADME. Particulars: 1.0 mg/mL S9 protein; for half-life at 2 μM: dog, TRIS pH 7.4, read-out: Dog GI S9 T½; for Dog GI S9 [Intermediate A] / Dog GI S9 [Intermediate A] %: 2 μM, TRIS pH 7.4. Here is the method: (§1) Reagents. Stock solutions of test compounds in dimethyl sulfoxide (DMSO) having a final concentration of 10 mM were prepared and used in all experiments. Sekisui XenoTech (Kansas City, KS) provided pooled intestinal S9 fractions. All other chemicals were purchased from Sigma-Aldrich (St. Louis, MO) or VWR (West Chester, PA). Internal Standard/Quench (IS/Q) used to stop reactions was 100 nM labetalol in (by volume) formic acid (1%) and acetonitrile (99%).
(§2) Intestinal S9 Assay: For each test compound, an aliquot of the test compound was added to S9 stock diluted with TRIS buffer (100 mM TRIS, 1 mM ZnCl2, 1 mM MgCl2), pH 7.4, to obtain an incubation protein concentration of 1.0 mg/mL. The incubation was initiated by the addition of the substrate to the S9 reaction mixture to a final concentration of 2 μM. At 0, 10, 20, 30, 60 and 120 min, 25 μL aliquots of the reaction mixture were transferred to plates containing 225 μl of IS/Q solution. After quenching, the plates were centrifuged at 3000×g for 30 minutes. 150 μL aliquots of each supernatant were transferred to new plates and 150 μL water was added. Aliquots (10 μL) of the prepared samples were analyzed on a Thermo Q-Exactive mass spectrometer as described below.
(§3) Liquid Chromatography-Mass Spectrometry: Quantification of test compounds and control substrate was performed by analyte/internal standard peak area ratio (PAR) values measured on a Thermo Q-Exactive mass spectrometer coupled to a Dionex UltiMate 3000 HPLC with a Leap Technologies HTC PAL autosampler. The column used for analysis was a Thermo Scientific Hypersil GOLD (1.9 μm particle size, 50×2.1 mm). Mobile phase A consisted of 0.1% (v/v) formic acid in water. Mobile phase B consisted of 0.1% (v/v) formic acid in acetonitrile. Elution of analytes was achieved by a series of linear gradients varying the proportions of A and B. The mass spectrometer was calibrated on a weekly basis and mass tolerance of 5 ppm was used.
(§4) Data Analysis. Metabolic stabilities were determined by measuring the rates of disappearance of test compound and positive control substrate. Data (% of substrate remaining) were plotted on a semi-log scale and fitted using an exponential decline model:
(§5) where • Ct% of substrate remaining at time=t • C0% of substrate remaining at time=0 • t time • T½ half-life • The Half-life (T½) is determined by the following equation:
(§6) [formula] • Assuming a first-order reaction, the slope (k) is extrapolated from the aforementioned plotted data.

Data set [2] can be described thus: Intestinal S9 Assay (human GI S9). The class given is in vitro ADME. Particulars: 1.0 mg/mL S9 protein; for half-life at 2 μM: human, TRIS pH 7.4, read-out: Human GI S9 T½; for Human GI S9 [Intermediate A] / Human GI S9 [Intermediate A] %: 2 μM, TRIS pH 7.4. Here is the method:
as §1, §2, §3, §4, §5, §6

The test system of another data set is HIV-1 IIIB strain. Put plainly: MT-4 HIV Wild Type Virus Infection Assay (IIIB Virus). Particulars: Human immunodeficiency virus 1, IIIB, MT4, 120 h, MT-4 cells acutely infected with HIV-1 IIIB, 5 day incubation, Cell-titer glo. The class given is cell-based. In outline:
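MT-4 cells at 2×10^6 cells/ml in RPMI/10% FBS were acutely infected with HIV-1 IIIB for 1 h at 37° C, diluted 25× and added to serially diluted compounds. After 5 days at 37° C, viability read by CellTiter-Glo luminescence; EC50 from dose-response curves.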

The target in data set [3] is bovine intestinal alkaline phosphatase (Bos taurus (Bovine), UniProt P19111). Put plainly: BiALP: conversion by bovine intestinal alkaline phosphatase. The class given is in vitro ADME. Particulars: 2 μM substrate, 100 ng/mL iALP, Tris pH 7.8, 37° C., 60 minutes; for [Intermediate A] or [Amprenavir]: parent formed. In outline: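 LC-MS (positive mode) quantified analyte/internal-standard peak area ratios, referenced to 2 μM parent product. This followed a 60 min, 37° C reaction of 2 μM substrate in Tris buffer pH 7.8 (1 mM MgCl2, 1 mM ZnCl2) containing 100 ng/mL iALP or buffer alone, run in triplicate.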

The nature of the next data set: PBS Stability Assay. The class given is physicochemical. Particulars: buffer, pH 7.4, 2 μM, phosphate buffered saline pH 7.4; read-out: PBS T½. The method in brief: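 Half-life derives from first-order exponential decline of % compound remaining, quantified by LC-MS analyte/internal-standard peak-area ratio. Compound (2 μM final) sat in pH 7.4 phosphate-buffered saline, with aliquots quenched into acidified acetonitrile containing labetalol from 0 to 120 min.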

The next data set is described as follows: physchem. The settings on record: 23 °C, pH 6.5, fassif, thermodynamic from solid; for solubility: FaSSIF (pH 6.5) solubility, FaSSIF pH 6.5, dose 5 mg/mL, 2-hour incubation, ambient temperature. The method in brief: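 Concentration measured by HPLC-UV after solid compound was dosed at 5 mg/mL into pH 6.5 fasted-state simulated intestinal fluid containing taurocholate and lecithin (4:1 molar) and vortexed.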

Values after ≈ are worked out from the molar mass of the structure shown. Read-outs that look alike come from different tables or passages of the source.

Sequence of bovine intestinal alkaline phosphatase (P19111 20-506): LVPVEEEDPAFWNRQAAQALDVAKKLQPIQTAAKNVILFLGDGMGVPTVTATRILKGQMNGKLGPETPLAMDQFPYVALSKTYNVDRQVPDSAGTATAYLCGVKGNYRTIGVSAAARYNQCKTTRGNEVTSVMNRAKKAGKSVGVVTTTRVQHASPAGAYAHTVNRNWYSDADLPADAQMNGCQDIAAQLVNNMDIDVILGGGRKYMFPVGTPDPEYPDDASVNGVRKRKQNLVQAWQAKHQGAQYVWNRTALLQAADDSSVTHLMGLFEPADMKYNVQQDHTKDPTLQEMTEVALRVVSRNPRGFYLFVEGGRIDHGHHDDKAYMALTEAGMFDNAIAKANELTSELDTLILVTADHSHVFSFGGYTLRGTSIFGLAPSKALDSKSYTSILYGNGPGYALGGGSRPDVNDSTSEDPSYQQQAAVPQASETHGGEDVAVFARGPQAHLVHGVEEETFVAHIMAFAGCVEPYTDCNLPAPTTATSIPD

For the molecule `COC(=O)N[C@H](C(=O)N[C@@H](Cc1ccc(C#Cc2cnc(N3CC4CCC(C3)N4C3COC3)nc2)cc1)[C@H](CN(Cc1c(F)cc(-c2ccn(C(F)F)n2)cc1F)NC(=O)[C@@H](NC(=O)OC)C(C)(C)C(F)(F)F)OC(=O)CC(C)(C)c1c(C)cc(C(=O)O)cc1OP(=O)(O)O)C(C)(C)C(F)(F)F` [Example 3, 4-((5S,10S)-8-(4-(1-(difluoromethyl)-1H-pyrazol-3-yl)-2,6-difluorobenzyl)-14-methyl-10-((1S)-2-(4-((2-(8-(oxetan-3-yl)-3,8-diazabicyclo[3.2.1]octan-3-yl)pyrimidin-5-yl)ethynyl)phenyl)-1-((S)-4,4,4-trifluoro-2-((methoxycarbonyl)amino)-3,3-dimethylbutanamido)ethyl)-3,6,12-trioxo-5-(1,1,1-trifluoro-2-methylpropan-2-yl)-2,11-dioxa-4,7,8-triazapentadecan-14-yl)-3-methyl-5-(phosphonooxy)benzoic acid], the figures for the half-life at 2 μM (in data set [1]; in data set [2]; in the data set “PBS Stability Assay”) were 0.685 h, 1.98 h and 4.19 h, respectively. Moreover, in the data set on HIV-1 IIIB strain (read-out: EC50), the concentration giving a half-maximal response (EC50) worked out at 96.6 nM. Moreover, the “[Compound]” value in data set [3] came out at 1197.7 nM.
Turning to `COC(=O)N[C@H](C(=O)N[C@@H](Cc1ccc(C#Cc2cnc(N3CC4CCC(C3)N4C3COC3)nc2)cc1)[C@H](CN(Cc1c(F)cc(-c2ccn(C(F)F)n2)cc1F)NC(=O)[C@@H](NC(=O)OC)C(C)(C)C(F)(F)F)OC(=O)CC(C)(C)c1c(CC(=O)O)cc(C)cc1OP(=O)(O)O)C(C)(C)C(F)(F)F` [Example 4], in “physchem”, the concentration in solution (solubility) came to 272 µg/mL (≈ 183 µM). Further, the half-life at 2 μM in data set [1] was 1.69 h; in data set [2] it was 7.74 h; in “PBS Stability Assay”, 9.43 h. Moreover, in the data set on HIV-1 IIIB strain (read-out: EC50), the concentration for a half-maximal effect (EC50) was determined as 20.7 nM. Moreover, the “[Compound]” value in data set [3] was found to be 1627.4 nM.
Turning to `COC(=O)N[C@H](C(=O)N[C@@H](Cc1ccc(C#Cc2cnc(N3CC4CCC(C3)N4C3COC3)nc2)cc1)[C@H](CN(Cc1c(F)cc(-c2ccn(C(F)F)n2)cc1F)NC(=O)[C@@H](NC(=O)OC)C(C)(C)C(F)(F)F)OC(=O)CC(C)(C)c1c(CC(=O)O)cccc1OP(=O)(O)O)C(C)(C)C(F)(F)F` [Example 5, 2-(2-((5S,10S)-8-(4-(1-(difluoromethyl)-1H-pyrazol-3-yl)-2,6-difluorobenzyl)-14-methyl-10-((1S)-2-(4-((2-(8-(oxetan-3-yl)-3,8-diazabicyclo[3.2.1]octan-3-yl)pyrimidin-5-yl)ethynyl)phenyl)-1-((S)-4,4,4-trifluoro-2-((methoxycarbonyl)amino)-3,3-dimethylbutanamido)ethyl)-3,6,12-trioxo-5-(1,1,1-trifluoro-2-methylpropan-2-yl)-2,11-dioxa-4,7,8-triazapentadecan-14-yl)-3-(phosphonooxy)phenyl)acetic acid], the solubility in “physchem” was under 1000 µg/mL. The half-life at 2 μM in data set [1] came out at 0.74 h; in data set [2] it was 11.6 h; in “PBS Stability Assay”, 7.62 h. The concentration giving a half-maximal response (EC50) in the data set with HIV-1 IIIB strain (read-out: EC50) was 73.7 nM. The “[Compound]” value in data set [3] was 1638.1 nM.
Consider `COC(=O)N[C@H](C(=O)N[C@@H](Cc1ccc(C#Cc2cnc(N3CC4CCC(C3)N4C3COC3)nc2)cc1)[C@H](CN(Cc1c(F)cc(-c2ccn(C(F)F)n2)cc1F)NC(=O)[C@@H](NC(=O)OC)C(C)(C)C(F)(F)F)OC(=O)CC(C)(C)c1c(CC(=O)N[C@@H](CCC(=O)O)C(=O)O)cccc1OP(=O)(O)O)C(C)(C)C(F)(F)F` [Example 6], for which the solubility at 2 h in the data set “physchem” was found to be 3710 µg/mL (≈ 2320 µM). Further, in data set [1], the “Dog GI S9 [Intermediate A]” value is given as 1236 nM, the “Dog GI S9 [Intermediate A] %” value is recorded as 93.8% and the half-life at 2 μM came to 0.393 h. In data set [2], the “Human GI S9 [Intermediate A]” value is 363.6 nM, the “Human GI S9 [Intermediate A] %” value was 28.2% and the half-life at 2 μM turned out to be 2.57 h. Moreover, the EC50 in the data set with HIV-1 IIIB strain turned out to be 20.7 nM. In addition, in data set [3], the “[Compound]” value is 1304.1 nM, the “biALP Intermediate A or [Amprenavir] (% of total)” value is 19 % of total and the “[Intermediate A] or [Amprenavir]” value is 306.6 nM. Further, the half-life at 2 μM in the data set “PBS Stability Assay” stood at 10.9 h.
On to `COC(=O)N[C@H](C(=O)N[C@@H](Cc1ccc(C#Cc2cnc(N3CC4CCC(C3)N4C3COC3)nc2)cc1)[C@H](CN(Cc1c(F)cc(-c2ccn(C(F)F)n2)cc1F)NC(=O)[C@@H](NC(=O)OC)C(C)(C)C(F)(F)F)OC(=O)CC(C)(C)c1c(CC(=O)NCC(=O)O)cccc1OP(=O)(O)O)C(C)(C)C(F)(F)F` [Example 7], for which, in “physchem”, the concentration in solution (solubility at 2 h) was 5490 µg/mL (≈ 3590 µM). Moreover, in data set [1], the “Dog GI S9 [Intermediate A]” value is recorded as 1224.2 nM, the “Dog GI S9 [Intermediate A] %” value was determined as 91% and the half-life at 2 μM came out at 0.457 h. Also, in data set [2], the “Human GI S9 [Intermediate A]” value turned out to be 404.7 nM, the “Human GI S9 [Intermediate A] %” value is reported as 31.3% and the half-life at 2 μM worked out at 2.27 h. For the same molecule, in the data set on HIV-1 IIIB strain, a half-maximal effect (EC50) was put at 23.2 nM. Besides, in data set [3], the “[Compound]” value was 1590.8 nM, the “biALP Intermediate A or [Amprenavir] (% of total)” value is 9.4 % of total and the “[Intermediate A] or [Amprenavir]” value is recorded as 164.7 nM. The half-life at 2 μM in the data set “PBS Stability Assay” is 8.72 h.
`COC(=O)N[C@H](C(=O)N[C@@H](Cc1ccc(C#Cc2cnc(N3CC4CCC(C3)N4C3COC3)nc2)cc1)[C@H](CN(Cc1c(F)cc(-c2ccn(C(F)F)n2)cc1F)NC(=O)[C@@H](NC(=O)OC)C(C)(C)C(F)(F)F)OC(=O)CC(C)(C)c1c(CC(=O)N2CC[C@@H]2C(=O)O)cc(C)cc1OP(=O)(O)O)C(C)(C)C(F)(F)F` [Example 9] showed a solubility at 2 h in “physchem” of 2300 µg/mL (≈ 1470 µM). The half-life at 2 μM in data set [1] turned out to be 1.14 h; in data set [2] it was 8.93 h; in the data set “PBS Stability Assay”, 10.4 h. The midpoint of the response in the data set on HIV-1 IIIB strain, the EC50, lay at 241 nM. Further, the “[Compound]” value in data set [3] is given as 2004.9 nM. For the same molecule, the “biALP Intermediate A or [Amprenavir] (% of total)” value in data set [3] is 1.8 % of total. Also, the “[Intermediate A] or [Amprenavir]” value in data set [3] stood at 36.5 nM.
Take `COC(=O)N[C@H](C(=O)N[C@@H](Cc1ccc(C#Cc2cnc(N3CC4CCC(C3)N4C3COC3)nc2)cc1)[C@H](CN(Cc1c(F)cc(-c2ccn(C(F)F)n2)cc1F)NC(=O)[C@@H](NC(=O)OC)C(C)(C)C(F)(F)F)OC(=O)CC(C)(C)c1c(CC(=O)N[C@@H](CS(=O)(=O)O)C(=O)O)cc(C)cc1OP(=O)(O)O)C(C)(C)C(F)(F)F` [Example 32]: in the data set “physchem”, the solubility at 2 h amounted to 3400 µg/mL (≈ 2080 µM). The half-life at 2 μM in data set [1] turned out to be 1 h; in data set [2] it was 3.87 h; in the data set “PBS Stability Assay” it was 5.18 h. Further, the midpoint of the response with HIV-1 IIIB strain, the EC50, lay at 137 nM.
Take `COC(=O)N[C@H](C(=O)N[C@@H](Cc1ccc(C#Cc2cnc(N3CC4CCC(C3)N4C3COC3)nc2)cc1)[C@H](CN(Cc1c(F)cc(-c2ccn(C(F)F)n2)cc1F)NC(=O)[C@@H](NC(=O)OC)C(C)(C)C(F)(F)F)OC(=O)CC(C)(C)c1c(CC(=O)Nc2cccc(S(=O)(=O)O)c2)cc(C)cc1OP(=O)(O)O)C(C)(C)C(F)(F)F` [Example 105]: the half-life at 2 μM was 4.85 h in data set [1], 9.3 h in data set [2] and 5.51 h in “PBS Stability Assay”. In the data set on HIV-1 IIIB strain, this molecule showed an EC50 of 217 nM. Also, the “[Compound]” value in data set [3] is on record as 1626.1 nM.

Broadly, the EC50 is the concentration needed to bring the measured effect to its halfway point. The solubility is how much of the substance goes into solution per volume. The low end stands for little dissolved substance, the high end for much dissolved substance.

Source of the values: patent US20250051375A1, “ANTI-HIV COMPOUNDS” (Gilead Sciences, Inc., priority 2023, published 2025).
